From patent US7125984B2, “Glucuronofucan sulfate” (Takara Bio Inc., priority 2000, dated 2006)

Tests used:
[1] = system: α-D-glucuronidase; experiment: effect of calcium salt, protein and sodium chloride on the enzymatic reaction of α-D-glucuronidase; format: biochemical, Fucophilus fucoidanolyticus strain SI-1234; conditions: for activation of α-D-glucuronidase (relative activity versus concentration in the reaction system): result in words
Excerpt: (§1) Then, the relationship between the relative activity of the α-D-glucuronidase or the endo-α-L-fucosidase of the present invention and the concentration of calcium chloride contained in the reaction system was examined.
(§2) Then, the relationship between the relative activity of the α-D-glucuronidase or the endo-α-L-fucosidase of the present invention and the concentration of bovine serum albumin contained in the reaction system was examined.
(§3) Then, the relationship between the relative activity of the α-D-glucuronidase or the endo-α-L-fucosidase of the present invention and the concentration of sodium chloride contained in the reaction system was examined.

[2] = system: endo-α-L-fucosidase; experiment: effect of calcium salt, protein and sodium chloride on the enzymatic reaction of endo-α-L-fucosidase; format: biochemical, Fucophilus fucoidanolyticus strain SI-1234; conditions: for activation of endo-α-L-fucosidase (relative activity versus concentration in the reaction system): result in words
Excerpt: as §1, §2, §3

[3] = oligosaccharide having a low molecular weight as substrate
[4] = sulfated glucuronofucan having a high molecular weight as substrate

**Q.** How did the “activation of α-D-glucuronidase (relative activity versus concentration in the reaction system)” value [1] turn out when `[Ca+2].[Cl-].[Cl-]` [calcium chloride] was run?
**A.** activated

**Q.** What about the “activation of endo-α-L-fucosidase (relative activity versus concentration in the reaction system)” value [2] of the same compound?
**A.** activated

**Q.** How did the “activation of α-D-glucuronidase” value [1, 3] turn out when `[Cl-].[Na+]` [sodium chloride] was run?
**A.** not activated

**Q.** What about the “activation of α-D-glucuronidase” value [1, 4] of the same compound?
**A.** activates

**Q.** What about the “activation of endo-α-L-fucosidase” value [2, 3] of the same compound?
**A.** not activated

**Q.** What about the “activation of endo-α-L-fucosidase” value [2, 4] of the same compound?
**A.** activates

**Q.** “bovine serum albumin: protein added to the reaction system as enzyme activator” was tested. Which “activation of α-D-glucuronidase (relative activity versus concentration in the reaction system)” value [1] did it give?
**A.** activated

**Q.** And the “activation of endo-α-L-fucosidase (relative activity versus concentration in the reaction system)” value [2]?
**A.** activated
